Test results from paper PMC11424024 (Methods in enzymology, 2024).

Legend:
[1] = molecular target: Rv0097 (Mycobacterium tuberculosis, UniProt P9WG83)
[2] = molecular target: ScoE (Streptomyces coeruleorubidus, UniProt A0A3B6UEU3); assay: LC-HRMS; type: biochemical; conditions: α-KG, Fe(II); no INBA formed, only a trace of 2

Sequence of Rv0097 (P9WG83 whole entry): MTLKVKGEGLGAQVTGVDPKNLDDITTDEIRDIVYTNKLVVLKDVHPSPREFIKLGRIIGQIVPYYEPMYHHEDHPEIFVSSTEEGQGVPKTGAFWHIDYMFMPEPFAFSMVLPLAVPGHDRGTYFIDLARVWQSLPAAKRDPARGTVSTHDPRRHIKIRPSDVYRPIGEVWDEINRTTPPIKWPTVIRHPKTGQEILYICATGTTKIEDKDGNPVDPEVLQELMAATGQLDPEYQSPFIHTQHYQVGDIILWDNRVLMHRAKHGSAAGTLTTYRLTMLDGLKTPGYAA

| Structure (SMILES) | LC-HRMS of INDA formation [1] | LC-HRMS; glyoxylate derivatization with 2-nitrophenylhydrazine [2] |
| --- | --- | --- |
| CCCCCCCC(CC(=O)O)NCC(=O)O (racemic) [CADA, 3-[(carboxymethyl)amino]decanoic acid] | We reconstituted the activity of Rv0097 using the surrogate substrate CADA |  |
| C[C@H](CC(=O)O)NCC(=O)O [CABA, (R)-3-((carboxymethyl)amino)butanoic acid] |  | Y96F ScoE mutant revealed that it was unable to synthesize INBA from CABA |
